Results: ChEMBL document CHEMBL1287680, “C-11 diamino cryptolepine derivatives NSC748392, NSC748393, and NSC748394: anticancer profile and G-quadruplex stabilization” (Bioorg Med Chem Lett, 2010)

Key:
Nucleic Acid = conditions: Homo sapiens
Description: Binding affinity to human duplex DNA assessed as change in melting temperature by FRET-melting assay

SK-OV-3 = assay: cells; conditions: Homo sapiens
Description: Anticancer activity against human SKOV3 cells

OVCAR-4 = assay: cells; conditions: Homo sapiens
Description: Anticancer activity against human OVCAR4 cells

OVCAR-3 = assay: cells; conditions: Homo sapiens
Description: Anticancer activity against human OVCAR-3 cells

SK-MEL-5 = assay: cells; conditions: Homo sapiens
Description: Anticancer activity against human SK-MEL-5 cells

SK-MEL-28 = assay: cells; conditions: Homo sapiens
Description: Anticancer activity against human SK-MEL-28 cells

M14 = assay: cells; conditions: Homo sapiens
Description: Anticancer activity against human M14 cells

Malme-3M = assay: cells; conditions: Homo sapiens
Description: Anticancer activity against human MALME-3M cells

U-251 = assay: cells; conditions: Homo sapiens
Description: Anticancer activity against human U251 cells

SF-539 = assay: cells; conditions: Homo sapiens
Description: Anticancer activity against human SF539 cells

SF-268 = assay: cells; conditions: Homo sapiens
Description: Anticancer activity against human SF268 cells

SW-620 = assay: cells; conditions: Homo sapiens
Description: Anticancer activity against human SW620 cells

HCT-116 = assay: cells; conditions: Homo sapiens
Description: Anticancer activity against human HCT116 cells

HCC 2998 = assay: cells; conditions: Homo sapiens
Description: Anticancer activity against human HCC2998 cells

COLO 205 = assay: cells; conditions: Homo sapiens
Description: Anticancer activity against human COLO205 cells

NCI-H460 = assay: cells; conditions: Homo sapiens
Description: Anticancer activity against human NCI-H460 cells

SR = assay: cells; conditions: Homo sapiens
Description: Anticancer activity against human SR cells

cells = conditions: Homo sapiens
Description: Anticancer activity against human RPMI8266 cells

MOLT-4 = assay: cells; conditions: Homo sapiens
Description: Anticancer activity against human MOLT4 cells

CCRF-CEM = assay: cells; conditions: Homo sapiens
Description: Anticancer activity against human CCRF-CEM cells

MDA-MB-468 = assay: cells; conditions: Homo sapiens
Description: Anticancer activity against human MDA-MB-468 cells

NCI/ADR-RES = assay: cells; conditions: Homo sapiens
Description: Anticancer activity against human NCI/ADR-RES cells

MCF7 = assay: cells; conditions: Homo sapiens
Description: Anticancer activity against human MCF7 cells

DU-145 = assay: cells; conditions: Homo sapiens
Description: Anticancer activity against human DU145 cells

PC-3 = assay: cells; conditions: Homo sapiens
Description: Anticancer activity against human PC3 cells

UO-31 = assay: cells; conditions: Homo sapiens
Description: Anticancer activity against human UO31 cells

SN12C = assay: cells; conditions: Homo sapiens
Description: Anticancer activity against human SN12C cells

CAKI-1 = assay: cells; conditions: Homo sapiens
Description: Anticancer activity against human Caki1 cells

ACHN = assay: cells; conditions: Homo sapiens
Description: Anticancer activity against human ACHN cells

Description for physchem: Dissociation constant, pKa of the compound by UV-visible spectroscopy

In the case of `CCN(CC)CCCCNc1c2ccccc2[n+](C)c2c1[nH]c1ccccc12.[Cl-]`, the ΔTm (Nucleic Acid) is reported as 13.1 °C, the GI50 (SK-OV-3; SK-OV-3, read-out: pGI50 (converted)) is reported as 251 nM and the CC50 (SK-OV-3; SK-OV-3, read-out: pLC50 (converted)) is reported as 100 µM. It also gave a TGI (SK-OV-3; SK-OV-3, read-out: pTGI) of 1820 nM, a GI50 (OVCAR-4; OVCAR-4, read-out: pGI50 (converted)) of 437 nM and a TGI (OVCAR-4; OVCAR-4, read-out: pTGI) of 1700 nM. The GI50 (OVCAR-3; OVCAR-3, read-out: pGI50 (converted)) was 427 nM, the CC50 (OVCAR-3; OVCAR-3, read-out: pLC50 (converted)) was over 100 µM and the TGI (OVCAR-3; OVCAR-3, read-out: pTGI) was 2450 nM. For the same compound, the GI50 (SK-MEL-5; SK-MEL-5, read-out: pGI50 (converted)) was 219 nM, the CC50 (SK-MEL-5; SK-MEL-5, read-out: pLC50 (converted)) was 2240 nM and the TGI (SK-MEL-5; SK-MEL-5, read-out: pTGI) was 617 nM. For the same compound, the GI50 (SK-MEL-28; SK-MEL-28, read-out: pGI50 (converted)) was 186 nM, the CC50 (SK-MEL-28; SK-MEL-28, read-out: pLC50 (converted)) was 1740 nM and the TGI (SK-MEL-28; SK-MEL-28, read-out: pTGI) was 490 nM. The GI50 (M14; M14, read-out: pGI50 (converted)) was 1350 nM, the CC50 (M14; M14, read-out: pLC50 (converted)) was 7.41 µM and the TGI (M14; M14, read-out: pTGI) was 3.16 µM. For the same compound, the GI50 (Malme-3M; read-out: pGI50 (converted)) was 204 nM, the CC50 (Malme-3M; read-out: pLC50 (converted)) was 2510 nM and the TGI (Malme-3M; read-out: pTGI) was 646 nM. It also gave a GI50 (U-251; U-251, read-out: pGI50 (converted)) of 229 nM, a CC50 (U-251; U-251, read-out: pLC50 (converted)) of 24.5 µM and a TGI (U-251; U-251, read-out: pTGI) of 1350 nM. The GI50 (SF-539; SF-539, read-out: pGI50 (converted)) was 427 nM, the CC50 (SF-539; SF-539, read-out: pLC50 (converted)) was 4.07 µM and the TGI (SF-539; SF-539, read-out: pTGI) was 1620 nM. The GI50 (SF-268; SF-268, read-out: pGI50 (converted)) was 224 nM, the CC50 (SF-268; SF-268, read-out: pLC50 (converted)) was 33.1 µM and the TGI (SF-268; SF-268, read-out: pTGI) was 1580 nM. For the same compound, the GI50 (SW-620; SW-620, read-out: pGI50 (converted)) was 339 nM, the CC50 (SW-620; SW-620, read-out: pLC50 (converted)) was over 100 µM and the TGI (SW-620; SW-620, read-out: pTGI) was 5.25 µM. It also gave a GI50 (HCT-116; HCT-116, read-out: pGI50 (converted)) of 331 nM, a CC50 (HCT-116; HCT-116, read-out: pLC50 (converted)) of over 100 µM and a TGI (HCT-116; HCT-116, read-out: pTGI) of 3.8 µM. It also gave a GI50 (HCC 2998; HCC 2998, read-out: pGI50 (converted)) of 269 nM, a CC50 (HCC 2998; HCC 2998, read-out: pLC50 (converted)) of 3.63 µM and a TGI (HCC 2998; HCC 2998, read-out: pTGI) of 759 nM. The GI50 (COLO 205; COLO 205, read-out: pGI50 (converted)) was 158 nM, the CC50 (COLO 205; COLO 205, read-out: pLC50 (converted)) was 2950 nM and the TGI (COLO 205; COLO 205, read-out: pTGI) was 676 nM. The GI50 (NCI-H460; NCI-H460, read-out: pGI50 (converted)) was 91.2 nM, the CC50 (NCI-H460; NCI-H460, read-out: pLC50 (converted)) was 52.5 µM and the TGI (NCI-H460; NCI-H460, read-out: pTGI) was 1290 nM. The GI50 (SR; read-out: pGI50 (converted)) was 372 nM, the CC50 (SR; read-out: pLC50 (converted)) was over 100 µM and the TGI (SR; read-out: pTGI) was 42.7 µM. The GI50 (cells; RPMI8266, read-out: pGI50 (converted)) was 288 nM, the CC50 (cells; RPMI8266, read-out: pLC50 (converted)) was over 100 µM and the TGI (cells; RPMI8266, read-out: pTGI) was 1660 nM. For the same compound, the GI50 (MOLT-4; MOLT-4, read-out: pGI50 (converted)) was 339 nM, the CC50 (MOLT-4; MOLT-4, read-out: pLC50 (converted)) was over 100 µM and the TGI (MOLT-4; MOLT-4, read-out: pTGI) was 42.7 µM. It also gave a GI50 (CCRF-CEM; read-out: pGI50 (converted)) of 427 nM, a CC50 (CCRF-CEM; read-out: pLC50 (converted)) of over 100 µM and a TGI (CCRF-CEM; read-out: pTGI) of 2570 nM. For the same compound, the GI50 (MDA-MB-468; MDA-MB-468, read-out: pGI50 (converted)) was 204 nM, the CC50 (MDA-MB-468; MDA-MB-468, read-out: pLC50 (converted)) was 2140 nM and the TGI (MDA-MB-468; MDA-MB-468, read-out: pTGI) was 550 nM. For the same compound, the GI50 (NCI/ADR-RES; read-out: pGI50 (converted)) was 69.2 µM, the CC50 (NCI/ADR-RES; read-out: pLC50 (converted)) was over 100 µM and the TGI (NCI/ADR-RES; read-out: pTGI) was over 100 µM. The GI50 (MCF7; MCF7, read-out: pGI50 (converted)) was 224 nM, the CC50 (MCF7; MCF7, read-out: pLC50 (converted)) was over 36.3 µM and the TGI (MCF7; MCF7, read-out: pTGI) was 794 nM. For the same compound, the GI50 (DU-145; DU-145, read-out: pGI50 (converted)) was 170 nM, the CC50 (DU-145; DU-145, read-out: pLC50 (converted)) was 89.1 µM and the TGI (DU-145; DU-145, read-out: pTGI) was 10 µM. It also gave a GI50 (PC-3; PC-3, read-out: pGI50 (converted)) of 324 nM, a CC50 (PC-3; PC-3, read-out: pLC50 (converted)) of 100 µM and a TGI (PC-3; PC-3, read-out: pTGI) of 2240 nM. The GI50 (UO-31; UO-31, read-out: pGI50 (converted)) was 2400 nM, the CC50 (UO-31; UO-31, read-out: pLC50 (converted)) was over 100 µM and the TGI (UO-31; UO-31, read-out: pTGI) was 25.7 µM. For the same compound, the GI50 (SN12C; read-out: pGI50 (converted)) was 52.5 nM, the CC50 (SN12C; read-out: pLC50 (converted)) was over 72.4 µM and the TGI (SN12C; read-out: pTGI) was 3.24 µM. It also gave a GI50 (CAKI-1; CAKI-1, read-out: pGI50 (converted)) of 6.92 µM, a CC50 (CAKI-1; CAKI-1, read-out: pLC50 (converted)) of 100 µM and a TGI (CAKI-1; CAKI-1, read-out: pTGI) of 32.4 µM. For the same compound, the GI50 (ACHN; read-out: pGI50 (converted)) was 2950 nM, the CC50 (ACHN; read-out: pLC50 (converted)) was over 100 µM and the TGI (ACHN; read-out: pTGI) was 22.4 µM. The pKa (physchem) was 11.6.
